Measurements reported in patent publication US20230416205A1, “COMPOUNDS, COMPOSITIONS, AND METHODS” (Denali Therapeutics Inc, priority 2020, published 2023).
Read-outs that look alike come from different tables or passages of the source.

System: NLRP3
Assay: IL-1β secretion assay in PMA-differentiated, LPS/nigericin-stimulated THP-1 cells (384-well, ELISA read-out)
Type: cell-based, human
Experimental: Compounds as provided herein were tested in the following assay. Cell culture medium employed contained RPMI 1640 medium (89%), FBS (10%), Pen/Strep (1%), and 2-mercaptoethanol (0.05 mM). Freezing medium was made up of 90% FBS and 10% DMSO. THP-1 cells were removed from the liquid nitrogen and placed into a 37° C. water bath to thaw, until signs of ice dissipated. The cells were then added to 9 mL of warm cell culture medium and centrifuged for 5 minutes at 1000 rpm. The supernatant was discarded, and the cells were resuspended in new cell culture medium. THP-1 cells were then split and cultured in the cell culture medium, being passaged every 2-3 days with the cell density will be maintained between 5×10^5 and 1.5×10^6 viable cells/mL.
To freeze, cells were resuspended with fresh freezing medium, adjusting the cell density to 5×10^6 cells/mL. The cell suspension was partitioned into 1 mL aliquots per vial, and the vials were transferred to a −80° C. freezer. After one day at −80° C., the cell vials were transferred to liquid nitrogen freezer for storage.
PMA was dissolved in DMSO to make a stock solution at 5 mg/mL and stored in 10 μl aliquots at −20° C. for single use. PMA is added to normal growth medium. LPS was diluted with 1 mL of water solution to provide a 1 mg/mL stock solution and stored in 15 μl aliquots at −20° C. for single use. Nigericin is diluted in ice cold 100% ethanol to 5 mg/mL (6.7 mM) and stored in 75 μL aliquots at −20° C. for single use. Serum-free media contains RPMI 1640 medium (99%), Pen/Strep (1%), and 2-mercaptoethanol (0.05 mM). The two control conditions used to qualify and normalize test compound dose-response curves were as follows: High Control=25 ng/mL LPS, 5 μM Nigericin, 0.5% DMSO, Low Control=25 ng/mL, LPS, 0.5% DMSO.
THP-1 cells were diluted to provide a suspension at a concentration of 1.0×10^6 cells/mL with the total volume of suspension required to enable the desired number of assay plates. The growth media was supplemented with PMA (5 ng/mL final concentration) and the cells were incubated at 37° C. under a humidified atmosphere of 5% CO2 for 40 h.
All media was carefully aspirated from each culture flask. The cells were washed carefully with 1×DPBS. The cells were then briefly digested with trypsin LE for 5 minutes at 23° C., and immediately resuspended in cell growth media. After resuspension, the cells were centrifuged at 1000 rpm for 3 minutes and the supernatant was discarded. The cells were resuspended in DPBS and once again centrifuged at 1000 rpm for 5 minutes. The supernatant was discarded and the cell pellet was resuspended in serum-free media supplemented with LPS (25 ng/mL final concentration) to enable the distribution of 30K THP-1 cells within 45 μL of media into each well of 384-well PDL-coated plates. The 384-well plates were then incubated at 37° C. under a humidified atmosphere of 5% CO2 for 2 h. Following this period, test compounds were dispensed by Tecan across the desired concentration range with all wells normalized to a final 0.5% DMSO concentration. The plates were then incubated at 37° C. under a humidified atmosphere of 5% CO2 for 1 h. Following this period, 5 μL of the […] was added to each of the appropriate wells and plates were centrifuged at 1000 rpm for 30 seconds. The plates were the immediately reintroduced to the incubator at 37° C. under a humidified atmosphere of 5% CO2 for 2 h. After this time, 35 μL/well of supernatant was collected and transferred into v-bottom plate and centrifuged at 1000 rpm for 1 minute. These supernatant aliquots were analyzed using an IL-Iβ detection kit as described below. If needed, the test samples could be snap frozen and stored at −80° C. until analyzed.
To prepare each ELISA plate, capture antibody (mAb Mt175) was diluted with PBS to a final concentration of 2 μg/mL and then 20 μL of this solution was added to each well of the ELISA plate. Each plate was allowed to incubate overnight at 4° C.

[1] = Homo sapiens, THP-1, IL-1β secretion, PMA-differentiated THP-1 cells, LPS then nigericin stimulation, ELISA read at 450 nm, read-out: Activity
[2] = Homo sapiens, THP-1, Table 4, IL-1β secretion, LPS/nigericin-stimulated THP-1 cells, read-out: IC50
[3] = Table 4, IL-1β secretion, LPS/nigericin-stimulated THP-1 cells, read-out: IC50

`O=C(CN1CC2(CC2)c2cc(Br)ccc2C1=O)NC1CC(OC(F)F)C1` (stereo not drawn) [Example 60, 2-(6-bromo-1-oxo-spiro[3H-isoquinoline-4,1′-cyclopropane]-2-yl)-N-[3-(difluoromethoxy)cyclobutyl]acetamide] was tested. Which IC50 [1] did it give?
Its IC50 is under 10 µM.

What about the IC50 [2] of the same molecule?
Its IC50 is 8.68 µM.

With `O=C(CN1CC2(CC2(F)F)c2c(ccc(Br)c2F)C1=O)Nc1ncc(C(F)(F)F)cn1` (single isomer, unassigned) [Example 324, 2-[6-bromo-1′,1′,5-trifluoro-1-oxospiro[3H-isoquinoline-4,2′-cyclopropane]-2-yl]-N-[5-(trifluoromethyl)pyrimidin-2-yl]acetamide] as the molecule, how does the IC50 [3] read?
The IC50 was 0.027 µM.

For `O=C(CN1CC2(CC2)c2cc(C(F)(F)F)c(F)cc2C1=O)Nc1ncc(F)cn1` [Example 84, 2-[7-fluoro-1-oxo-6-(trifluoromethyl)spiro[3H-isoquinoline-4,1′-cyclopropane]-2-yl]-N-(5-fluoropyrimidin-2-yl)acetamide], which IC50 [1] is on record?
Its IC50 is under 10 µM.

What about the IC50 [2] of the same molecule?
The IC50 was 5.98 µM.

`COCCN1CCCC(NC(=O)CN2CC3(CC3)c3cc(Br)ccc3C2=O)C1` (stereo not drawn) [Example 25, 2-(6-bromo-1-oxo-spiro[3H-isoquinoline-4,1′-cyclopropane]-2-yl)-N-[1-(2-methoxyethyl)-3-piperidyl]acetamide] was tested. Which IC50 [1] did it give?
Its IC50 is under 10 µM.

And the IC50 [2]?
Its IC50 is 3.57 µM.

`Cn1ncc2cnc(NC(=O)CN3CC4(CC4)c4cc(Br)ccc4C3=O)nc21` [Example 408, 2-(6-bromo-1-oxospiro[3H-isoquinoline-4,1′-cyclopropane]-2-yl)-N-(1-methylpyrazolo[3,4-d]pyrimidin-6-yl)acetamide] was tested. Which IC50 [2] did it give?
The IC50 was 0.827 µM.

Which IC50 [1] does the source give for `O=C(CN1C[C@]2(C[C@H]2F)c2c(ccc(Br)c2F)C1=O)Nc1ncccn1` (single isomer, unassigned) [Example 227, 2-[(2′s,4r)-6-bromo-2′,5-difluoro-1-oxospiro[3H-isoquinoline-4,1′-cyclopropane]-2-yl]-N-pyrimidin-2-ylacetamide] here?
Its IC50 is under 10 µM.

What about the IC50 [2] of the same molecule?
Its IC50 is 0.127 µM.

How did the IC50 [2] turn out when `O=C(CN1CC2(CC2)c2cc(Br)ccc2C1=O)NC1CCN(c2ncccn2)CC1` [Example 380, 2-(6-bromo-1-oxospiro[3H-isoquinoline-4,1′-cyclopropane]-2-yl)-N-(1-pyrimidin-2-ylpiperidin-4-yl)acetamide] was run?
Its IC50 is 11.4 µM.

How did the IC50 [1] turn out when `O=C(CN1C[C@@]2(C[C@@H]2F)c2cc(Br)ccc2C1=O)Nc1ncc(F)cn1` (single isomer, unassigned) [Example 78] was run?
The IC50 was under 10 µM.

What about the IC50 [2] of the same molecule?
The IC50 was 0.208 µM.

Which IC50 [3] does the source give for `O=C(CN1CC2(CC2(F)F)c2c(ccc(Br)c2F)C1=O)Nc1ncc(C(F)(F)F)cn1` (single isomer, unassigned) [Example 323, 2-[6-bromo-1′,1′,5-trifluoro-1-oxospiro[3H-isoquinoline-4,2′-cyclopropane]-2-yl]-N-[5-(trifluoromethyl)pyrimidin-2-yl]acetamide] here?
The IC50 was over 10 µM.

Which IC50 [1] does the source give for `N#C[C@H]1C[C@@]12CN(CC(=O)Nc1ncc(F)cn1)C(=O)c1ccc(Br)cc12` (single isomer, unassigned) [Example 286, 2-[(2′s,4r)-6-bromo-2′-cyano-1-oxospiro[3H-isoquinoline-4,1′-cyclopropane]-2-yl]-N-(5-fluoropyrimidin-2-yl)acetamide] here?
Its IC50 is under 10 µM.

What about the IC50 [3] of the same molecule?
Its IC50 is 1.95 µM.

What does the source list for `O=C(CN1C[C@]2(C[C@H]2F)c2cc(C3(F)CC3)ccc2C1=O)Nc1ncc(Cl)cn1` [Example 250]?
IC50 [1]: < 10 µM; IC50 [2]: 0.014 µM

What does the source list for `CC1(C)CN(CC(=O)N[C@@H]2CCCN(C3CCC3)C2)C(=O)c2ccc(Br)cc21` [Example 26, (R)-2-(6-bromo-4,4-dimethyl-1-oxo-3,4-dihydroisoquinolin-2(1H)-yl)-N-(1-cyclobutylpiperidin-3-yl)acetamide]?
IC50 [1]: < 10 µM; IC50 [2]: 0.445 µM

For `O=C(CN1CC2(CC2)c2cc(Br)ccc2C1=O)Nc1ncc(C(F)F)cc1F` [Example 419, 2-(6-bromo-1-oxospiro[3H-isoquinoline-4,1′-cyclopropane]-2-yl)-N-[5-(difluoromethyl)-3-fluoropyridin-2-yl]acetamide], which IC50 [2] is on record?
Its IC50 is 0.769 µM.
